Data published in patent US10660967B2, “Curcumin conjugates and methods of use thereof” (priority 2016, dated 2020).

System: carrageenan induced paw edema
Assay: Anti-inflammatory activity: acute carrageenan induced paw edema in rats
Type: in vivo, Wister rats
Details: 10 mg kg^−1 indomethacin mol equivalent; for % inhibition of edema / Mean edema thickness: intraperitoneally; for Mean edema thickness: mean ± SE; for Potency (% inhibition of edema relative to that of indomethacin reference standard): at 4 h effect
Experimental: The anti-inflammatory activity of the tested compounds was determined in vivo by the acute carrageenan induced paw edema standard method in rats. See, Naumov, et al., Bioorg. Med. Chem. Lett, 25: 2314-2320 (2015), Tiwari, et al., Org. Biomol. Chem, 12: 7238-7249 (2014), Girgis, et al., Eur. J. Med. Chem, 50: 1-8 (2012), Barsoum, et al., Eur. J. Med. Chem, 44: 2172-2177 (2009), Girgis, et al., Eur. J. Med. Chem, 44: 1972-1977 (2009), Girgis, et al., Eur. J. Med. Chem, 44: 1257-1264 (2009), Girgis, et al., Eur. J. Med. Chem, 44: 91-100 (2009), Girgis, et al., Eur. J. Med. Chem, 43: 2116-2121 (2008), Girgis, et al., Bioorg. Med. Chem, 14: 8527-8532 (2006), and Barsoum, et al., Bioorg. Med. Chem, 14: 3929-3937 (2006).
Adult Wister rats of either sex (pregnant female animals were excluded) weighing 120-150 g were divided into 18 groups of 6 animals each. […] The control group was given DMSO only. Carrageenan paw edema was induced by subcutaneous injection of freshly prepared 1% solution of carrageenan in saline (0.9%, 0.1 ml per rat) into subplantar tissue of the right hind paw of rats. The thickness of the paw was measured (in mm) after successive time intervals (1, 2,3,4 and 24 h) and compared with the initial hind paw thickness of each rat for determining the edema thickness. Data were collected, checked, revised and analyzed. Quantitative variables from normal distribution were expressed as means±SE “standard error”. The anti-inflammatory activity was expressed as percentage inhibition of edema thickness in treated animals in comparison with the control group according to eqn. (1)
Where, Vc and Vt are the mean of edema paw thickness for the control and tested compound treated animal groups, respectively.

Row | SMILES | % inhibition of edema (1 h) | Mean edema thickness (1 h) | % inhibition of edema (2 h) | Mean edema thickness (2 h) | % inhibition of edema (3 h) | Mean edema thickness (3 h) | % inhibition of edema (4 h) | Mean edema thickness (4 h) | % inhibition of edema (24 h) | Mean edema thickness (24 h) | Potency (% inhibition of edema relative to that of indomethacin reference standard)
1 | COc1cc(/C=C/C(=O)CC(=O)/C=C/c2ccc(OC(=O)[C@@H](NC(=O)OCC3c4ccccc4-c4ccccc43)C(C)C)c(OC)c2)ccc1OC(=O)[C@@H](NC(=O)OCC1c2ccccc2-c2ccccc21)C(C)C [Compound 15] | 22% | 1.88 ± 0.22 mm | 49% | 1.05 ± 0.23 mm | 50% | 0.90 ± 0.17 mm | 53% | 0.66 ± 0.19 mm | 47% | 0.44 ± 0.11 mm | 61
2 | COc1cc(/C=C/C(=O)CC(=O)/C=C/c2ccc(OC(=O)[C@H](CC(C)C)NC(=O)OCC3c4ccccc4-c4ccccc43)c(OC)c2)ccc1OC(=O)[C@H](CC(C)C)NC(=O)OCC1c2ccccc2-c2ccccc21 [Compound 16] | 40% | 1.45 ± 0.18 mm | 41% | 1.22 ± 0.25 mm | 48% | 0.93 ± 0.20 mm | 50% | 0.70 ± 0.19 mm | 40% | 0.50 ± 0.10 mm | 57
3 | COc1cc(/C=C/C(=O)CC(=O)/C=C/c2ccc(OC(=O)[C@H](CCSC)NC(=O)OCC3c4ccccc4-c4ccccc43)c(OC)c2)ccc1OC(=O)[C@H](CCSC)NC(=O)OCC1c2ccccc2-c2ccccc21 [Compound 17] | 46% | 1.30 ± 0.04 mm | 73% | 0.56 ± 0.17 mm | 75% | 0.45 ± 0.18 mm | 98% | 0.03 ± 0.01 mm | 23% | 0.64 ± 0.02 mm | 113
4 | COc1cc(/C=C/C(=O)CC(=O)/C=C/c2ccc(OC(=O)[C@H](Cc3ccccc3)NC(=O)OCC3c4ccccc4-c4ccccc43)c(OC)c2)ccc1OC(=O)[C@H](Cc1ccccc1)NC(=O)OCC1c2ccccc2-c2ccccc21 [Compound 18] | 10% | 2.17 ± 0.24 mm | 41% | 1.22 ± 0.16 mm | 54% | 0.82 ± 0.08 mm | 60% | 0.56 ± 0.04 mm | 5% | 0.79 ± 0.02 mm | 69
5 | COc1cc(/C=C/C(=O)CC(=O)/C=C/c2ccc(OC(=O)[C@@H](C)NC(=O)OCc3ccccc3)c(OC)c2)ccc1OC(=O)[C@@H](C)NC(=O)OCc1ccccc1 [Compound 19] | 82% | 0.43 ± 0.08 mm | 89% | 0.23 ± 0.04 mm | 95% | 0.09 ± 0.03 mm | 100% | 0.00 ± 0.00 mm | 49% | 0.42 ± 0.06 mm | 115
6 | COc1cc(/C=C/C(=O)CC(=O)/C=C/c2ccc(OC(=O)[C@@H](CCSC)NC(=O)OCc3ccccc3)c(OC)c2)ccc1OC(=O)[C@@H](CCSC)NC(=O)OCc1ccccc1 [Compound 20] | 79% | 0.51 ± 0.04 mm | 80% | 0.41 ± 0.03 mm | 85% | 0.27 ± 0.01 mm | 94% | 0.08 ± 0.02 mm | 90% | 0.08 ± 0.01 mm | 108
7 | COc1cc(/C=C/C(=O)CC(=O)/C=C/c2ccc(OC(=O)[C@H](CCC(N)=O)NC(=O)OCc3ccccc3)c(OC)c2)ccc1OC(=O)[C@H](CCC(N)=O)NC(=O)OCc1ccccc1 [Compound 21] | 51% | 1.18 ± 0.11 mm | 47% | 1.09 ± 0.19 mm | 45% | 0.99 ± 0.09 mm | 44% | 0.78 ± 0.10 mm | 4% | 0.80 ± 0.05 mm | 51
8 | COc1cc(/C=C/C(=O)CC(=O)/C=C/c2ccc(OC(=O)CNC(=O)OC(C)(C)C)c(OC)c2)ccc1OC(=O)CNC(=O)OC(C)(C)C [Compound 22] | 43% | 1.37 ± 0.18 mm | 44% | 1.16 ± 0.14 mm | 44% | 1.00 ± 0.11 mm | 48% | 0.73 ± 0.09 mm | 47% | 0.44 ± 0.05 mm | 55
9 | COc1cc(/C=C/C(=O)CC(=O)/C=C/c2ccc(OC(=O)[C@H](Cc3ccccc3)NC(=O)OC(C)(C)C)c(OC)c2)ccc1OC(=O)[C@H](Cc1ccccc1)NC(=O)OC(C)(C)C [Compound 23] | 39% | 1.47 ± 0.16 mm | 44% | 1.16 ± 0.09 mm | 53% | 0.85 ± 0.11 mm | 59% | 0.58 ± 0.03 mm | 51% | 0.41 ± 0.02 mm | 68
10 | COc1cc(/C=C/C(=O)CC(=O)/C=C/c2ccc(OC(=O)[C@H](C)NC(=O)OC(C)(C)C)c(OC)c2)ccc1OC(=O)[C@H](C)NC(=O)OC(C)(C)C [Compound 24] | 6% | 2.26 ± 0.20 mm | 11% | 1.84 ± 0.17 mm | 20% | 1.44 ± 0.14 mm | 28% | 1.04 ± 0.18 mm | 5% | 0.79 ± 0.17 mm | 32
11 | COc1cc(/C=C/C(=O)CC(=O)/C=C/c2ccc(OC(=O)C(C)NC(=O)OC(C)(C)C)c(OC)c2)ccc1OC(=O)C(C)NC(=O)OC(C)(C)C (centres unmarked) [Compound 25] | 11% | 2.15 ± 0.14 mm | 16% | 1.74 ± 0.18 mm | 25% | 1.34 ± 0.20 mm | 40% | 0.84 ± 0.12 mm | 29% | 0.59 ± 0.09 mm | 46
12 | COc1cc(/C=C/C(=O)CC(=O)/C=C/c2ccc(OC(=O)[C@@H](C)NC(=O)OC(C)(C)C)c(OC)c2)ccc1OC(=O)[C@@H](C)NC(=O)OC(C)(C)C [Compound 26] | 22% | 1.87 ± 0.13 mm | 29% | 1.46 ± 0.21 mm | 39% | 1.09 ± 0.11 mm | 42% | 0.81 ± 0.08 mm | 37% | 0.52 ± 0.05 mm | 48
13 | COc1cc(/C=C/C(=O)CC(=O)/C=C/c2ccc(OC(=O)CCNC(=O)OC(C)(C)C)c(OC)c2)ccc1OC(=O)CCNC(=O)OC(C)(C)C [Compound 27] | 31% | 1.66 ± 0.19 mm | 33% | 1.38 ± 0.11 mm | 45% | 0.99 ± 0.12 mm | 61% | 0.55 ± 0.07 mm | 28% | 0.60 ± 0.03 mm | 70
